Results on one compound are retold here after patent US12622915B2, “Methods of treating PDE IV-mediated diseases or conditions” (Vanda Pharmaceuticals Inc., priority 2020, dated 2026).

Holding throughout (details): N=2, Example 3
One assay has as its target T1, Phosphodiesterase PDE6 (Bos taurus, UniProt P11541+P23439).
T1 construct: Source: Bovine retinal rod outer segments; from tissue; host or cells: bovine retinal rod outer segments
T1 sequence (P11541 2-856 limits assumed): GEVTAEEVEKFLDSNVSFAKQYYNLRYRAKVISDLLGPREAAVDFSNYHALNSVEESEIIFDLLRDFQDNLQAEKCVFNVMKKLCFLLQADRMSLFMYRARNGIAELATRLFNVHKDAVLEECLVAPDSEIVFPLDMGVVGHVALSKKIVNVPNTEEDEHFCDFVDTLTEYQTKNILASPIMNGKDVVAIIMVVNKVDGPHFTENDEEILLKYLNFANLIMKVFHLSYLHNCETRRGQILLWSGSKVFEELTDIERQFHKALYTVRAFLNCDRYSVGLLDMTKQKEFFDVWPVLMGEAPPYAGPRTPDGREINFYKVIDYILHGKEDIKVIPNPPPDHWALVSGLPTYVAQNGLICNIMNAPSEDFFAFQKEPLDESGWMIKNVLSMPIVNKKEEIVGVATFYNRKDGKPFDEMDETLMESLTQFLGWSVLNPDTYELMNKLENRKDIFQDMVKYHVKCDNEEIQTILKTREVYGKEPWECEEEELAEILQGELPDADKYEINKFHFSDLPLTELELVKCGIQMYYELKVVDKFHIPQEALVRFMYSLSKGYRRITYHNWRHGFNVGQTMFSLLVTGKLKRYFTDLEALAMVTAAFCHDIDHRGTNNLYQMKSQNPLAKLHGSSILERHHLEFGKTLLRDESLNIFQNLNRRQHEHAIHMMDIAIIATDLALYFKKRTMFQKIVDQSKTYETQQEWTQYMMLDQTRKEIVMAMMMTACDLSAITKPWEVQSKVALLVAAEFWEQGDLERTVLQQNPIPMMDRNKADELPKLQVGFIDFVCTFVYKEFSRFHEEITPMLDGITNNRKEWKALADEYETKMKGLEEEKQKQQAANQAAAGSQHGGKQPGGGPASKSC
T1 sequence (P23439 2-850 limits assumed): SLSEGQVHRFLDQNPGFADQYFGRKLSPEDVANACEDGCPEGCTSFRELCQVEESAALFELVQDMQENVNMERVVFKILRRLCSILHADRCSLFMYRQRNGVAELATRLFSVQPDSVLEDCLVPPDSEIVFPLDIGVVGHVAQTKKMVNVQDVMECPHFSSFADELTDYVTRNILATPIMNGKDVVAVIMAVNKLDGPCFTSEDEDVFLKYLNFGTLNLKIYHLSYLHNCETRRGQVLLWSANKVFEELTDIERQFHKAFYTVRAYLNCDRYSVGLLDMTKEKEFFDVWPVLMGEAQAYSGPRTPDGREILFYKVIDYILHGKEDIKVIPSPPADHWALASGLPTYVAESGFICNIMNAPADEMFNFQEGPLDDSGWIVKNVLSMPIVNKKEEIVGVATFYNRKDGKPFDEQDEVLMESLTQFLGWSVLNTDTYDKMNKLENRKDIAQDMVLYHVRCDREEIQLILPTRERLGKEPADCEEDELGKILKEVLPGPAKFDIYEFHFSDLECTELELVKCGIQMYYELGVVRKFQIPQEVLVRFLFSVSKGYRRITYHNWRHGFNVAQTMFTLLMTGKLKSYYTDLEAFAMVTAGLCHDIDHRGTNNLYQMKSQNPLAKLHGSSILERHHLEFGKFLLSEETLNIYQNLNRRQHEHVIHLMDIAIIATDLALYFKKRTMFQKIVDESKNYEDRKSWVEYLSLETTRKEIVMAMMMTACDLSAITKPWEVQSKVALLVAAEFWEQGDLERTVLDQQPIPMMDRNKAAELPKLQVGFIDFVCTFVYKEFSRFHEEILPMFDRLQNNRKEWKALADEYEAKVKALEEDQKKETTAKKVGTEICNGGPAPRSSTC
As to the kind of experiment: Phosphodiesterase PDE6 enzyme assay. In kind it is biochemical, bovine. An excerpt: (§1) Reference standards are run as an integral part of each assay to ensure the validity of the results obtained. Reference Compounds: • Phosphodiesterase PDE10A2 Papaverine • Phosphodiesterase PDE11A4 Dipyridamole • Phosphodiesterase PDE1A MMPX • Phosphodiesterase PDE2A EHNA • Phosphodiesterase PDE3A Cilostamide • Phosphodiesterase PDE4A1A Rolipram • Phosphodiesterase PDE4B1 Rolipram • Phosphodiesterase PDE5A Zaprinast • Phosphodiesterase PDE6 Zaprinast • Phosphodiesterase PDE7A IBMX • Phosphodiesterase PDE7B IBMX • Phosphodiesterase PDE8A1 Dipyridamole • Phosphodiesterase PDE9A2 Zaprinast
Phosphodiesterase PDE6: • Source: Bovine retinal rod outer segments • Substrate: 100 μM [^3H]cGMP+cGMP • Vehicle: 1.00% DMSO • Significance Crit.: ≥50% of max stimulation or inhibition • Incubation Buffer: 50 mM Tris-HCl, pH 7.5, 5 mM MgCl2 • Quantitation Method: Quantitation of [^3H]Guanosine • Pre-Incub. […]
IC50 values are determined by a non-linear, least squares regression analysis using MathIQ™ (ID Business Solutions Ltd., UK). Where inhibition constants (Ki) are presented, the Ki values are calculated using the equation of Cheng and Prusoff (Cheng, Y., Prusoff, W. H., Biochem. Pharmacol. 22:3099-3108, 1973) using the observed IC50 of the tested compound, the concentration of radioligand employed in the assay, and the historical values for the KD of the ligand. […]

The target in another assay is T2, Phosphodiesterase PDE7A (Homo sapiens, UniProt Q13946).
T2 construct: host or cells: insect Sf9 cells
As to the kind of experiment: Phosphodiesterase PDE7A enzyme assay. In kind it is biochemical.
Source text: as §1
(§2) Phosphodiesterase PDE4A1A; Phosphodiesterase PDE4B1; Phosphodiesterase PDE10A2; Phosphodiesterase PDE11A4; Phosphodiesterase PDE2A; Phosphodiesterase PDE3A; Phosphodiesterase PDE7A; Phosphodiesterase PDE7B; and Phosphodiesterase PDE8A1: • Source: Human recombinant insect Sf9 cells • Substrate: 0.10 μM FAM-cAMP • Vehicle: 1.00% DMSO • Significance Crit.: ≥50% of max stimulation or inhibition • Incubation Buffer: 10 mM Tris-HCl, pH 7.2, 10 mM MgCl2, 0.05% NaN3, 0.1% phosphate-free BSA • Quantitation Method: Quantitation of Fluorescein-AMP-IMAP • Pre-Incub. Time/Temp: 15 minutes @25° C. • Incubation Time/Temp: 30 minutes @25° C.
(§3) IC50 values are determined by a non-linear, least squares regression analysis using MathIQ™ (ID Business Solutions Ltd., UK). […]

The target in a further assay is T3, Phosphodiesterase PDE7B (Homo sapiens, UniProt Q9NP56).
T3 construct: host or cells: insect Sf9 cells
In words: Phosphodiesterase PDE7B enzyme assay. In kind it is biochemical.
Source text: as §1, §2, §3

The target in a further assay is T4, Phosphodiesterase PDE2A (Homo sapiens, UniProt O00408).
T4 construct: host or cells: insect Sf9 cells
In words: Phosphodiesterase PDE2A enzyme assay. In kind it is biochemical.
Source text: as §1, §2, §3

Molecules are shown by their SMILES.

T3 sequence (Q9NP56 whole entry): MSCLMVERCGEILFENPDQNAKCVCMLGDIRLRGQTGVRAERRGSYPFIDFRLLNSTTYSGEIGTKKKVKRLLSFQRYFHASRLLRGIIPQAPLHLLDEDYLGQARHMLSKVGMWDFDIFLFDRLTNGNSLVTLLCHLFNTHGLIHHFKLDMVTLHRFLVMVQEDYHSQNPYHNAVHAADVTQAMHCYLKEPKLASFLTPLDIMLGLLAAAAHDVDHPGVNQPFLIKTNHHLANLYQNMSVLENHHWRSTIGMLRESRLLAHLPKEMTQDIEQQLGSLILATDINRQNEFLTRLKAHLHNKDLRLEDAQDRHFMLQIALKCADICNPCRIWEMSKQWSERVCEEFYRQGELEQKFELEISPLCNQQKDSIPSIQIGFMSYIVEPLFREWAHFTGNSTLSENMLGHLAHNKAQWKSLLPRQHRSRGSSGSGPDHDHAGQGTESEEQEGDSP
T4 sequence (O00408 whole entry): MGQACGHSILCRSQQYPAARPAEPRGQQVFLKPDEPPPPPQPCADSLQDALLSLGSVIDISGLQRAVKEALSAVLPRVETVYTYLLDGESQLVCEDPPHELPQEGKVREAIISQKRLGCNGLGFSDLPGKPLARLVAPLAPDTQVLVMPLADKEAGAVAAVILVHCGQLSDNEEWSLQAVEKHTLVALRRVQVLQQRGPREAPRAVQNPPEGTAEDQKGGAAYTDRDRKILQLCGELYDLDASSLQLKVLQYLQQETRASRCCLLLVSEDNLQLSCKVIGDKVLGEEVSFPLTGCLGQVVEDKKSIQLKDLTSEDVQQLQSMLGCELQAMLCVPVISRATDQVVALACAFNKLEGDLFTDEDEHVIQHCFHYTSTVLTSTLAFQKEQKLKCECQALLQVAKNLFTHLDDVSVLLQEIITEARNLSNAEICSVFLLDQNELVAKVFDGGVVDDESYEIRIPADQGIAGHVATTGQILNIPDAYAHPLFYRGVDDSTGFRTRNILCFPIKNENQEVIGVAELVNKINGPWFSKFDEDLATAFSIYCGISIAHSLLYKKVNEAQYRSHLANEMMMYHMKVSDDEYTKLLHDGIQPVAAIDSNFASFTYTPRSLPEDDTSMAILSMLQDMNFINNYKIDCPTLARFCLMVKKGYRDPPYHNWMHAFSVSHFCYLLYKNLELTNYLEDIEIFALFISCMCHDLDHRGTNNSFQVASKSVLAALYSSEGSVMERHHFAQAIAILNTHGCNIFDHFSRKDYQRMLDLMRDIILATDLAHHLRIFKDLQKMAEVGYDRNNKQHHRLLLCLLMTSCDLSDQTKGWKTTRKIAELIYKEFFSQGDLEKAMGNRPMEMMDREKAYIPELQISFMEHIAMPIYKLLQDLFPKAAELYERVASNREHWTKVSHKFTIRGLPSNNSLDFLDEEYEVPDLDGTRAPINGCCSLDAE
T2 sequence (Q13946 whole entry): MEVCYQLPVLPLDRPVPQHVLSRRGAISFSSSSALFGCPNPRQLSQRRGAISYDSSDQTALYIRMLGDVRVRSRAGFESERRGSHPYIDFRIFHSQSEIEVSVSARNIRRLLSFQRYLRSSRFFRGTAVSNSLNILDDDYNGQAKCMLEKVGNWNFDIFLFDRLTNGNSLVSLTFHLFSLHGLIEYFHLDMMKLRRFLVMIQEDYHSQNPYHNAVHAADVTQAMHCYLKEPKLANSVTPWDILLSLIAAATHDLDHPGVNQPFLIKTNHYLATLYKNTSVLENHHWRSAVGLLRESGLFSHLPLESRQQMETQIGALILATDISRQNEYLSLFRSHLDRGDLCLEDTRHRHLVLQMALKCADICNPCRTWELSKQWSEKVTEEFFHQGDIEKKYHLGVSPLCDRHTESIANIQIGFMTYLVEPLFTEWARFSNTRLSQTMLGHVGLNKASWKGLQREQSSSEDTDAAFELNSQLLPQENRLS

Consider `CNc1nc(Nc2ccccc2)nc(OCC(F)(F)C(F)F)n1` [compound of Formula (I), N^2-methyl-N^4-phenyl-6-(2,2,3,3-tetrafluoropropoxy)-1,3,5-triazine-2,4-diamine], for which the inhibition at 10 µM against Phosphodiesterase PDE6 is 8%; against Phosphodiesterase PDE7A, 7%; at Phosphodiesterase PDE7B, -1%; against Phosphodiesterase PDE2A, 9%.
